Data taken from US5432175A, “Pyridine and pyridine N-oxide derivatives of diaryl methyl piperidines or piperazines, and compositions and methods of use thereof” (Schering Corporation, priority 1993, dated 1995).

Each compound was assayed on PAF-induced platelet aggregation (assay: Platelet Aggregation Assay (in vitro PAF antagonism, human platelet-rich plasma)). Conditions: 37° C., PAF 1-5×10^-8 M.
Type: cell-based
Method: Platelet Aggregation Assay
Platelet-activating factor (PAF) causes aggregation of platelets by a receptor-mediated mechanism. Therefore, PAF-induced platelet aggregation provides a simple and convenient assay to screen compounds for PAF antagonism.
Blood was centrifuged at 110×g for 15 min. and the supernatant platelet-rich plasma (PRP) carefully transferred into a polypropylene tube. Platelet-poor-plasma (PPP) was prepared by centrifuging PRP at 12,000×g for 2 min. PRP was used within 3 hr. of drawing the blood.
PAF was dissolved in chloroform:methanol (1:1, v/v) at a concentration of 2 mg/ml and stored at -70° C. An aliquot of this solution was transferred to a polypropylene tube and dried under a flow of nitrogen gas. […] The solution was sonicated for 5 min. This stock solution was further diluted to appropriate concentrations in Hepes-saline-BSA buffer. Collagen and adenosine diphosphate (ADP) were purchased as solutions. Test compounds were initially dissolved in dimethyl sulfoxide (DMSO) at a concentration of 50 mM and then further diluted in Hepes-saline-BSA buffer to achieve appropriate concentrations.
When an aggregating agent such as PAF is added to PRP, platelets aggregate. An aggregometer quantifies this aggregation by measuring and comparing light (infra-red) transmission through PPP and PRP. Aggregation assays were performed using a dual-channel aggregometer. PRP (0.45 ml) in aggregometer cuvettes was continually stirred (37° C.). Solutions (50 μL) of test compounds or vehicle were added to the PRP and, after incubation for 2 min., 10-15 μl aliquots of PAF solution were added to achieve a final concentration of 1-5×10^-8 M. In different experiments the aggregatory response was kept within a set limit by varying the concentration of PAF. Incubations were continued until the increase in light transmission reached a maximum (usually 2 min.). This increase in light transmission reflecting platelet aggregation is transmitted to a computer. The computer calculates the slope of transmission change, thus providing the rate of aggregation. Values for inhibition were calculated by comparing rates of aggregation obtained in the absence and the presence of the compound. For each experiment, a standard PAF antagonist such as 8-chloro-6,11-dihydro-11 -(1-acetyl-4-piperidylidene)-5H-benzo[5,6]cyclohepta[1,2-b]pyridine was used as a positive control. […]

SMILES | IC50 [nM]
O=C(c1cc[n+]([O-])cc1)N1CCC(=C(c2ccc(Cl)cc2)c2ccccn2)CC1 | 500
O=C(c1cc[n+]([O-])cc1)N1CCC(=C(c2ccccc2)c2ccccc2)CC1 | 3000
O=C(c1cc[n+]([O-])cc1)N1CCN(C(c2ccccc2)c2ccc(Cl)cc2)CC1 (centres unmarked) | 1000
[O-][n+]1ccc(CN2CCC(=C(c3ccc(Cl)cc3)c3ccccn3)CC2)cc1 | 12000
O=C(c1cc[n+]([O-])cc1)N1CCN(C(c2ccc(Cl)cc2)c2cccs2)CC1 (centres unmarked) | 200
O=C(c1cc[n+]([O-])cc1)N1CCN(C(c2ccc(Cl)cc2)c2nccs2)CC1 (centres unmarked) | 1000
Cn1ccnc1C(=C1CCN(C(=O)c2cc[n+]([O-])cc2)CC1)c1ccc(Cl)cc1 | 2000
Cn1ccnc1C(=C1CCN(Cc2cc[n+]([O-])cc2)CC1)c1ccc(Cl)cc1 | 20000
[O-][n+]1ccc(CN2CCN(C(c3ccc(Cl)cc3)c3cccs3)CC2)cc1 (centres unmarked) | 15000
[O-][n+]1ccc(CN2CCN(C(c3ccc(Cl)cc3)c3nccs3)CC2)cc1 (centres unmarked) | 12000
O=C(c1cc[n+]([O-])cc1)N1CCC(=C(c2ccc(Cl)cc2)c2cccs2)CC1 | 500
[O-][n+]1ccc(CN2CCC(=C(c3ccc(Cl)cc3)c3nccs3)CC2)cc1 | 35000
O=C(c1cc[n+]([O-])cc1)N1CCC(=C(c2ccc(Cl)cc2)c2nccs2)CC1 | 1000
CC(=O)N1CCC(=C2c3ccc(Cl)cc3CCc3cccnc32)CC1 [reference compound] | 610

What follows are compounds tested on PAF-induced bronchospasm (assay: PAF-induced bronchospasm in guinea pigs (in vivo)). Conditions: Cavia porcellus, po, read-out: Agonist Bronchospasm (in vivo) PAF % Inhibition.
Set-up: species or system guinea pig (male Hartley)
Method: (§1) B. In Vivo Studies: Agonist-Induced Responses
(§2) Spasmogen-Induced Bronchospasm in Guinea Pigs
(§3) Male Hartley guinea pigs (450-550 g) were obtained from Charles River Breeding Laboratories. The animals were fasted overnight and the following day were anesthetized with 0.9 ml/kg i.p. of dilaurethane (containing 0.1 g/ml diallylbarbituric acid, 0.4 g/ml ethylurea and 0.4 g/ml urethane). The left jugular vein was cannulated for the administration of compounds. The trachea was cannulated and the animals were ventilated by a rodent respirator at 55 strokes/min. with a stroke volume of 4 ml. A side arm to the tracheal cannula was connected to a pressure transducer to obtain a continuous measure of inflation pressure. Bronchoconstriction was measured as the percent increase in inflation pressure that peaked within 5 min. after challenge with spasmogen. […] Each animal was challenged with only a single spasmogen. The effect of a compound on the bronchospasm is expressed as a percent inhibition of the increase in inflation pressure compared to the increase in a control group. […] The first two compounds in TABLE II are known compounds and are included for comparison purposes.

SMILES | inhibition in vivo at 10 mg/kg [%]
CCOC(=O)N1CCC(=C2c3ccc(Cl)cc3CCc3cccnc32)CC1 [reference compound] | < 50

Same assay, conditions: Cavia porcellus; oral, dose 3 mg/kg; PAF 0.4 μg/kg i.v.; read-out: Agonist Bronchospasm (in vivo) PAF % Inhibition

SMILES | inhibition in vivo at 3 mg/kg [%]
O=C(c1cc[n+]([O-])cc1)N1CCC(=C(c2ccc(Cl)cc2)c2ccccn2)CC1 | 100
O=C(c1cc[n+]([O-])cc1)N1CCC(=C(c2ccccc2)c2ccccc2)CC1 | 44
O=C(c1cc[n+]([O-])cc1)N1CCN(C(c2ccccc2)c2ccc(Cl)cc2)CC1 (centres unmarked) | 99
[O-][n+]1ccc(CN2CCC(=C(c3ccc(Cl)cc3)c3ccccn3)CC2)cc1 | 18
O=C(c1cc[n+]([O-])cc1)N1CCN(C(c2ccc(Cl)cc2)c2cccs2)CC1 (centres unmarked) | 22
O=C(c1cc[n+]([O-])cc1)N1CCN(C(c2ccc(Cl)cc2)c2nccs2)CC1 (centres unmarked) | 73
CC(=O)N1CCC(=C2c3ccc(Cl)cc3CCc3cccnc32)CC1 [reference compound] | 4

These compounds were tested on histamine-induced bronchospasm (assay: Histamine-induced bronchospasm in guinea pigs (in vivo)). Conditions: oral, dose 1 mg/kg; histamine 10 ug/kg i.v.
Set-up: species or system guinea pig (male Hartley)
Method: as §1, §2, §3

SMILES | Agonist Bronchospasm (in vivo) Histamine % Inhibition [%]
CCOC(=O)N1CCC(=C2c3ccc(Cl)cc3CCc3cccnc32)CC1 [reference compound] | > 50

Same assay, conditions: oral, dose 3 mg/kg; histamine 10 ug/kg i.v.

SMILES | Agonist Bronchospasm (in vivo) Histamine % Inhibition [%]
O=C(c1cc[n+]([O-])cc1)N1CCC(=C(c2ccc(Cl)cc2)c2ccccn2)CC1 | 0
O=C(c1cc[n+]([O-])cc1)N1CCC(=C(c2ccccc2)c2ccccc2)CC1 | 0
O=C(c1cc[n+]([O-])cc1)N1CCN(C(c2ccccc2)c2ccc(Cl)cc2)CC1 (centres unmarked) | 30
[O-][n+]1ccc(CN2CCC(=C(c3ccc(Cl)cc3)c3ccccn3)CC2)cc1 | 95
CC(=O)N1CCC(=C2c3ccc(Cl)cc3CCc3cccnc32)CC1 [reference compound] | 48

Same assay, conditions: oral, dose 10 mg/kg; histamine 10 ug/kg i.v.

SMILES | Agonist Bronchospasm (in vivo) Histamine % Inhibition [%]
O=C(c1cc[n+]([O-])cc1)N1CCN(C(c2ccc(Cl)cc2)c2nccs2)CC1 (centres unmarked) | 25
